This passage reports DC50, Dmax and IC50 results from patent US12139492B2 (Endotarget Inc., priority 2021, dated 2024).

SMILES strings stand for the structures. Read-outs that look alike come from different tables or passages of the source.

The target of one experiment is BTK (Homo sapiens, UniProt Q06187). Kind of experiment: Degradation of BTK protein in Namalwa cells (Western blot; DC50, Dmax). The following applies: for DC50: cell line not given.
The test system of a further experiment is Mino cells. The experiment in a line: Antiproliferative effect, MTS cell viability assay, Mino cells. The class given is cell-based. The note with it: Homo sapiens, MINO, Mino mantle cell lymphoma cells; read-out: IC50 (anti-proliferation) Mino cells. The procedure, abridged: (§1)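 Cells were exposed to compound at 0, 0.001, 0.01, 0.1, 1 and 10 μM for 72 h. Viability was then measured by MTS assay, reading formazan produced by metabolically active cells as absorbance at 490 nm.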

Another experiment concerns JeKo-1 cells. The experiment in a line: Antiproliferative effect, MTS cell viability assay, JeKo-1 cells. Format: cell-based. The note with it: Homo sapiens; JeKo-1 mantle cell lymphoma cells; read-out: IC50 (anti-proliferation) JeKO-1 cells. In short, it runs like this: as §1
The mark [1] stands for this setting: read-out: DC50 (BTK degradation), concentration giving 50% reduction of BTK expression level.
Setting [2] is: read-out: Dmax (BTK degradation).

BTK, sequence (Q06187 whole entry): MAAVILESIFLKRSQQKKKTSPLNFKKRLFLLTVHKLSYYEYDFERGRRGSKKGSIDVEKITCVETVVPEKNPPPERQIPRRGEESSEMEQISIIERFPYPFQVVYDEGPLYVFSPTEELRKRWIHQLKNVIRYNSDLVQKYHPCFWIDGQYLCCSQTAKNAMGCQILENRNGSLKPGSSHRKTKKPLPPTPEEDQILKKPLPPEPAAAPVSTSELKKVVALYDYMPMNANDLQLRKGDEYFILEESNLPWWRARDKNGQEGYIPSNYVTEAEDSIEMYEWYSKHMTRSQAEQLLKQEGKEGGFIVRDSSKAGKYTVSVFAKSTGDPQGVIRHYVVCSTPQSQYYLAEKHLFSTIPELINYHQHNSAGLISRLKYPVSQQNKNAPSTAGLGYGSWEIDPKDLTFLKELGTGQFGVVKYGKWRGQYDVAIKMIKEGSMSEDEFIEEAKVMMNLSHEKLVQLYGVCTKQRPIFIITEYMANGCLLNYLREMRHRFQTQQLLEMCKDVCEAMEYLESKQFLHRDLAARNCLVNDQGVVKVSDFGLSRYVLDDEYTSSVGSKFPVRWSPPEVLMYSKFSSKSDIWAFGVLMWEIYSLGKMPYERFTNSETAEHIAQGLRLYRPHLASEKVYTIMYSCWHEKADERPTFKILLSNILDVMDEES

On to `NC(=O)c1c(-c2ccc(Oc3ccccc3)cc2)nn2c1NCC[C@H]2C1CCN(CC2CCN(C(=O)N3CCN(Cc4ccc5c(c4)C(=O)N(C4CCC(=O)NC4=O)C5=O)CC3)CC2)CC1` (stereo partly drawn) [Compound 399, (7S)-7-(1-((1-(4-((2-(2,6-dioxopiperidin-3-yl)-1,3-dioxoisoindolin-5-yl)methyl)piperazine-1-carbonyl)piperidin-4-yl)methyl)piperidin-4-yl)-2-(4-phenoxyphenyl)-4,5,6,7-tetrahydropyrazolo[1,5-a]pyrimidine-3-carboxamide], for which the 50% degradation concentration (DC50) at BTK (setting [1]) is above 50 nM. Further, the Dmax on BTK (setting [2]) is above 50%. The IC50 is 1000 to 10000 nM with Mino cells and above 10 µM in the experiment on JeKo-1 cells.

Turning to `Nc1ncnc2c1c(-c1ccc(Oc3ccccc3)cc1)nn2C1CCN(C[C@H]2CCN(C[C@@H]3CCN(c4ccc5c(c4)C(=O)N(C4CCC(=O)NC4=O)C5=O)C3)C2)CC1` (stereo partly drawn) [Compound 447b, 5-((S)-3-(((R)-3-((4-(4-amino-3-(4-phenoxyphenyl)-1H-pyrazolo[3,4-d]pyrimidin-1-yl)piperidin-1-yl)methyl)pyrrolidin-1-yl)methyl)pyrrolidin-1-yl)-2-(2,6-dioxopiperidin-3-yl)isoindoline-1,3-dione], on BTK (setting [1]), the 50% degradation concentration (DC50) was below 10 nM. The Dmax at BTK (setting [2]) was above 90%. Also, the IC50 was in the range of 1000 to 10000 nM in the experiment on Mino cells and 1 to 10 µM in the experiment with JeKo-1 cells.

On to `NC(=O)c1c(-c2ccc(Oc3ccccc3)cc2)nn2c1NCCC2C1CCN(C2CCN(C(=O)N3CCN(Cc4ccc5c(c4)CN(C4CCC(=O)NC4=O)C5=O)CC3)CC2)CC1` (stereo not drawn) [Compound 340, 7-(1′-(4-((2-(2,6-dioxopiperidin-3-yl)-1-oxoisoindolin-5-yl)methyl)piperazine-1-carbonyl)-[1,4′-bipiperidin]-4-yl)-2-(4-phenoxyphenyl)-4,5,6,7-tetrahydropyrazolo[1,5-a]pyrimidine-3-carboxamide], for which the Dmax on BTK was above 50%. On BTK (BTK degradation), this compound came in with a DC50 above 50 nM. Further, the IC50 is above 10000 nM in the experiment on Mino cells and above 10 µM with JeKo-1 cells.

`Nc1ncnc2c1c(-c1ccc(Oc3ccccc3)cc1)nn2C1CCN(C2CCN(CC3CCN(c4ccc5c(c4)C(=O)N([C@@H]4CCC(=O)NC4=O)C5=O)CC3)CC2)CC1` [Compound 213a, (R)-5-(4-((4-(4-amino-3-(4-phenoxyphenyl)-1H-pyrazolo[3,4-d]pyrimidin-1-yl)[1,4′-bipiperidin]-1′-yl)methyl)piperidin-1-yl)-2-(2,6-dioxopiperidin-3-yl)isoindoline-1,3-dione] showed a maximal degradation (Dmax) on BTK above 90%. Besides, the half-maximal degradation concentration (DC50) on BTK (BTK degradation) was below 10 nM. For the same compound, the IC50 was below 1000 nM in the experiment on Mino cells and below 1 µM with JeKo-1 cells.

On BTK, `Nc1ncnc2c1c(-c1ccc(Oc3ccccc3)cc1)nn2C1CCN(C2CCN(C(=O)N3CCC(CN4CCN(c5ccc6c(c5)CN(C5CCC(=O)NC5=O)C6=O)CC4)CC3)CC2)CC1` (stereo not drawn) [Compound 240, 3-(5-(4-((1-(4-(4-amino-3-(4-phenoxyphenyl)-1H-pyrazolo[3,4-d]pyrimidin-1-yl)-[1,4′-bipiperidine]-1′-carbonyl)piperidin-4-yl)methyl)piperazin-1-yl)-1-oxoisoindolin-2-yl)piperidine-2,6-dione] gave a Dmax above 90%. The DC50 on BTK (BTK degradation) was below 10 nM. Besides, the IC50 with Mino cells is 1000 to 10000 nM; in the experiment with JeKo-1 cells, below 1 µM.

Turning to `Nc1ncnc2c1c(-c1ccc(Oc3ccccc3)cc1)nn2C1CCN(C[C@H]2CCN(CC3CCN(c4ccc5c(c4)CN(C4CCC(=O)NC4=O)C5=O)CC3)C2)CC1` (stereo partly drawn) [Compound 446a, 3-(5-(4-(((R)-3-((4-(4-amino-3-(4-phenoxyphenyl)-1H-pyrazolo[3,4-d]pyrimidin-1-yl)piperidin-1-yl)methyl)pyrrolidin-1-yl)methyl)piperidin-1-yl)-1-oxoisoindolin-2-yl)piperidine-2,6-dione], on BTK (setting [1]), the DC50 lay within 10 to 50 nM. For the same compound, the Dmax at BTK (setting [2]) is above 90%. The values for the IC50 with Mino cells and in the experiment on JeKo-1 cells were 1000 to 10000 nM and 1 to 10 µM, respectively.

`Nc1ncnc2c1c(-c1ccc(Oc3ccccc3)cc1)nn2[C@@H]1CCCN(C2CCN(C(=O)N3CCC(CCCN4CCC(c5ccc6c(c5)CN(C5CCC(=O)NC5=O)C6=O)CC4)CC3)CC2)C1` (stereo partly drawn) [Compound 198, 3-(5-(1-(3-(1-((R)-3-(4-amino-3-(4-phenoxyphenyl)-1H-pyrazolo[3,4-d]pyrimidin-1-yl)-[1,4′-bipiperidine]-1′-carbonyl)piperidin-4-yl)propyl)piperidin-4-yl)-1-oxoisoindolin-2-yl)piperidine-2,6-dione] displayed a Dmax on BTK above 75%. The compound further came in with a DC50 at BTK (BTK degradation) of 10 to 50 nM. Further, the IC50 lay within 1000 to 10000 nM in the experiment on Mino cells and 1 to 10 µM in the experiment with JeKo-1 cells.

For `NC(=O)c1c(-c2ccc(Oc3ccccc3)cc2)nn2c1NCCC2C1CCN(C(=O)N2CCC(CCN3CCC(c4ccc5c(c4)C(=O)N(C4CCC(=O)NC4=O)C5=O)CC3)CC2)CC1` (stereo not drawn) [Compound 285, 7-(1-(4-(2-(4-(2-(2,6-dioxopiperidin-3-yl)-1,3-dioxoisoindolin-5-yl)piperidin-1-yl)ethyl)piperidine-1-carbonyl)piperidin-4-yl)-2-(4-phenoxyphenyl)-4,5,6,7-tetrahydropyrazolo[1,5-a]pyrimidine-3-carboxamide], on BTK, the Dmax was above 75%. The DC50 on BTK (BTK degradation) was above 50 nM. Moreover, the IC50 with Mino cells lay in the range of 1000 to 10000 nM; in the experiment with JeKo-1 cells, 1 to 10 µM.

Turning to `Nc1ncnc2c1c(-c1ccc(Oc3ccccc3)cc1)nn2C1CCC(C(=O)N2CC(N3CCN(c4ccc5c(c4)CN(C4CCC(=O)NC4=O)C5=O)CC3)C2)CC1` (stereo not drawn) [Compound 512, 3-(5-(4-(1-(4-(4-amino-3-(4-phenoxyphenyl)-1H-pyrazolo[3,4-d]pyrimidin-1-yl)cyclohexane-1-carbonyl)azetidin-3-yl)piperazin-1-yl)-1-oxoisoindolin-2-yl)piperidine-2,6-dione], the DC50 at BTK (setting [1]) was below 10 nM. Further, the Dmax on BTK (setting [2]) is above 90%. Moreover, the values for the IC50 with Mino cells and in the experiment with JeKo-1 cells were below 1000 nM and below 1 µM, respectively.

For `Nc1ncnc2c1c(-c1ccc(Oc3ccccc3)cc1)nn2C1CCN(CCN2CCC(N3CCN(c4ccc5c(c4)CN(C4CCC(=O)NC4=O)C5=O)CC3)CC2)CC1` (stereo not drawn) [Compound 458, 3-(5-(4-(1-(2-(4-(4-amino-3-(4-phenoxyphenyl)-1H-pyrazolo[3,4-d]pyrimidin-1-yl)piperidin-1-yl)ethyl)piperidin-4-yl)piperazin-1-yl)-1-oxoisoindolin-2-yl)piperidine-2,6-dione], the DC50 on BTK (setting [1]) was above 50 nM. Besides, on BTK (setting [2]), the Dmax was above 50%. In addition, the IC50 lay in the range of 1000 to 10000 nM with Mino cells and 1 to 10 µM with JeKo-1 cells.

Regarding `Nc1ncnc2c1c(-c1ccc(Oc3ccccc3)cc1)nn2C1CCN(CCCC#Cc2ccc(N3CCC(=O)NC3=O)cc2)CC1` [Compound 538, 1-(4-(5-(4-(4-amino-3-(4-phenoxyphenyl)-1H-pyrazolo[3,4-d]pyrimidin-1-yl)piperidin-1-yl)pent-1-yn-1-yl)phenyl)dihydropyrimidine-2,4(1H,3H)-dione], the DC50 on BTK (setting [1]) is above 50 nM. In addition, the Dmax at BTK (setting [2]) is above 50%. For the same compound, the IC50 was above 10000 nM with Mino cells and above 10 µM in the experiment on JeKo-1 cells.

In the case of `NC1=NC=NC2C1C(c1ccc(Oc3ccccc3)cc1)=NN2C1CCN(C(=O)N2CCN(C3CN(c4ccc5c(c4)CN(C4CCC(=O)NC4=O)C5=O)C3)CC2)CC1` (stereo not drawn) [Compound 504, 3-(5-(3-(4-(4-(4-amino-3-(4-phenoxyphenyl)-3a,7a-dihydro-1H-pyrazolo[3,4-d]pyrimidin-1-yl)piperidine-1-carbonyl)piperazin-1-yl)azetidin-1-yl)-1-oxoisoindolin-2-yl)piperidine-2,6-dione], the DC50 on BTK (setting [1]) was below 10 nM. Besides, on BTK (setting [2]), the Dmax was above 90%. The IC50 with Mino cells was below 1000 nM; with JeKo-1 cells, below 1 µM.

With `Nc1ncnc2c1c(-c1ccc(Oc3ccccc3)cc1)nn2[C@@H]1CCCN(C2CN(C(=O)N3CC(N4CCN(c5ccc6c(c5)C(=O)N(C5CCC(=O)NC5=O)C6=O)CC4)C3)C2)C1` (stereo partly drawn) [Compound 479, 5-(4-(1-(3-((R)-3-(4-amino-3-(4-phenoxyphenyl)-1H-pyrazolo[3,4-d]pyrimidin-1-yl)piperidin-1-yl)azetidin-1-carbonyl)azetidin-3-yl)piperazin-1-yl)-2-(2,6-dioxopiperidin-3-yl)isoindoline-1,3-dione], the DC50 at BTK (setting [1]) is below 10 nM. In addition, the maximal degradation (Dmax) on BTK (setting [2]) was above 90%. For the same compound, the IC50 in the experiment on Mino cells lay within 1000 to 10000 nM; with JeKo-1 cells, 1 to 10 µM.

`NC(=O)c1c(-c2ccc(Oc3ccccc3)cc2)nn2c1NCC[C@H]2C1CCN(CCOCCOCCN2CCN(c3ccc4c(c3)CN(C3CCC(=O)NC3=O)C4=O)CC2)CC1` (stereo partly drawn) [Compound 272, (7S)-7-(1-(2-(2-(2-(4-(2-(2,6-dioxopiperidin-3-yl)-1-oxoisoindolin-5-yl)piperazin-1-yl)ethoxy)ethoxy)ethyl)piperidin-4-yl)-2-(4-phenoxyphenyl)-4,5,6,7-tetrahydropyrazolo[1,5-a]pyrimidine-3-carboxamide]: the Dmax at BTK is above 90%. Moreover, the DC50 at BTK (BTK degradation) was 10 to 50 nM. For the same compound, the IC50 was 1000 to 10000 nM in the experiment with Mino cells and above 10 µM with JeKo-1 cells.

On to `Nc1ncnc2c1c(-c1ccc(Oc3ccccc3)cc1)nn2C1CCN(C2CCN(CC3CCN(c4ccc5c(c4)CN(C4CCC(=O)NC4=O)C5=O)C3)C2)CC1` (stereo not drawn) [Compound 452, 3-(5-(3-((3-(4-(4-amino-3-(4-phenoxyphenyl)-1H-pyrazolo[3,4-d]pyrimidin-1-yl)piperidin-1-yl)pyrrolidin-1-yl)methyl)pyrrolidin-1-yl)-1-oxoisoindolin-2-yl)piperidine-2,6-dione], for which the DC50 at BTK (setting [1]) was in the range of 10 to 50 nM. Further, at BTK (setting [2]), the Dmax is above 75%. The IC50 in the experiment with Mino cells was below 1000 nM; with JeKo-1 cells, 1 to 10 µM.
